# Like-named read-outs stand apart in the source and are kept apart here.
# Experiments:
# biotinylated PLK1 = biotinylated PLK1 (Homo sapiens, UniProt P53350); test: Target residence time assay (Biacore T200 surface plasmon resonance), PLK1; format: binding; details: SPR, 22° C.
# Method: The affinity, i.e. the equilibrium dissociation constant (KD) ([…]), of the compound of formula (I) against TTK and PLK1 were determined using a Biacore T200TM surface plasmon resonance instrument using recombinant expressed TTK kinase domain (amino acids 519-808) or biotinylated PLK1. The immobilization of TTK was performed as described in Maia et al. Annals of Oncology, 2015; 26:2180-2192. The immobilization of biotinylated PLKI was performed as described in Willemsen-Seegers et al. Journal of Molecular Biology, 2017; 429:574-586. The subsequent single cycle kinetic assays were performed at 22° C. using a compound concentration gradient of 1, 3.6, 10, 31.6 and 100 nM for TTK and 10, 31.6, 100, 316 and 1000 nM for PLK1, a contact time of 100 s and a flow rate of […]. The dissociation period was 1200-1800 s and a correction for an unstable surface using a blank run with buffer was performed.
# tumor-derived TTK = biological target: T1, tumor-derived TTK (Homo sapiens, UniProt P33981); test: Tumor TTK target occupancy in MDA-MB-231 xenograft-bearing mice; format: in vivo
# T1 construct: TTK target occupancy was also measured in tumors derived from MDA-MB-231 xenograft-bearing mice; from tissue; host or cells: MDA-MB-231 xenograft tumours grown in mice
# T1 sequence (P33981 1-857): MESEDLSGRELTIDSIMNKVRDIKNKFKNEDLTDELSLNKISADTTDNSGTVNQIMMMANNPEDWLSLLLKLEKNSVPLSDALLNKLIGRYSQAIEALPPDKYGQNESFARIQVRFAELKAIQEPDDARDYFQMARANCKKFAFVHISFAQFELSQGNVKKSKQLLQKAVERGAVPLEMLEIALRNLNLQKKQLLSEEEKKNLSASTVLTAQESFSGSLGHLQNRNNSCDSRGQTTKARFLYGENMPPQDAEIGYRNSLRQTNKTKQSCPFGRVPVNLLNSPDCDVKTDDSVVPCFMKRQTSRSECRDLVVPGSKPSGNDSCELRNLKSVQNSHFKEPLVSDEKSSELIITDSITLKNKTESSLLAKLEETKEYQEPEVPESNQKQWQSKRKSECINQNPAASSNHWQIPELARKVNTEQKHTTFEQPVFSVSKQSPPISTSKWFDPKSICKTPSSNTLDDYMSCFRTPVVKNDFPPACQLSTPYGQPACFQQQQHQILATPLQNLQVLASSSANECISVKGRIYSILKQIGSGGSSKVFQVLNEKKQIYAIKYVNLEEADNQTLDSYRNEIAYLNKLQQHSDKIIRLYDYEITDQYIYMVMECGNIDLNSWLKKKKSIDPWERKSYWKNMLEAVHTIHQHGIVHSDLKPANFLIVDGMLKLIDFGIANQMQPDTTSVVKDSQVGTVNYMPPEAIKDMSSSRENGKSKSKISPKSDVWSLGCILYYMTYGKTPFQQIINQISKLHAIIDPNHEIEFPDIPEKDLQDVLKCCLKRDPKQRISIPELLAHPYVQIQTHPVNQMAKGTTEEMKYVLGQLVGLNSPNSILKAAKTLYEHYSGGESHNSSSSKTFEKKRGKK
# Method: Prolonged TTK target occupancy was also measured in tumors derived from MDA-MB-231 xenograft-bearing mice treated with intermittent i.v. dosing regimen of compound of formula (I). […]
# [1] = First PK study: single oral dose, two formulations; format: in vivo, female Swiss Albino mice; details: for Tmax / bioavailability / AUC(0-inf) / AUC(0-t) / Cmax / half-life: Swiss Albino, mouse, plasma; for bioavailability: based on i.v. exposure; for AUC(0-t): AUC0-24 h; for Cmax: mean (SD); for half-life: read-out: Apparent T1/2 (converted)
# Method: Plasma samples were collected on day 1 for Groups 1 to 6. Formulation 1 consisted of DMSO, cremophor EL, and 5% mannitol in water (10/10/80; v/v/v). Formulation 2 consisted of ethanol, PEG 400, and citric acid 20 mM (10/10/80; v/v/v). […] In each of the three studies blood was collected via the sephanous vein into K2-EDTA tubes kept on ice until centrifugation at 4° C. Plasma was stored at ap-proximately-80° C. […] PK parameters were calculated using Phoenix® WinNonLin 6.4. PK analysis was based on sparse sampling.
# [2] = female, po, 5 mg/kg, single oral 5 mg/kg, Formulation 1, female mice
# [3] = female, po, 5 mg/kg, single oral 5 mg/kg, Formulation 2, female mice
# [4] = female, po, 7.5 mg/kg, single oral 7.5 mg/kg, Formulation 1, female mice
# [5] = female, po, 7.5 mg/kg, single oral 7.5 mg/kg, Formulation 2, female mice
# [6] = female, po, 10 mg/kg, single oral 10 mg/kg, Formulation 1, female mice
# [7] = female, po, 10 mg/kg, single oral 10 mg/kg, Formulation 2, female mice
# [8] = single oral 5 mg/kg, Formulation 1, female mice
# [9] = single oral 5 mg/kg, Formulation 2, female mice
# [10] = single oral 7.5 mg/kg, Formulation 1, female mice
# [11] = single oral 7.5 mg/kg, Formulation 2, female mice
# [12] = single oral 10 mg/kg, Formulation 1, female mice
# [13] = single oral 10 mg/kg, Formulation 2, female mice
# biotinylated PLK1, sequence (P53350 whole entry, the tested form may be a part): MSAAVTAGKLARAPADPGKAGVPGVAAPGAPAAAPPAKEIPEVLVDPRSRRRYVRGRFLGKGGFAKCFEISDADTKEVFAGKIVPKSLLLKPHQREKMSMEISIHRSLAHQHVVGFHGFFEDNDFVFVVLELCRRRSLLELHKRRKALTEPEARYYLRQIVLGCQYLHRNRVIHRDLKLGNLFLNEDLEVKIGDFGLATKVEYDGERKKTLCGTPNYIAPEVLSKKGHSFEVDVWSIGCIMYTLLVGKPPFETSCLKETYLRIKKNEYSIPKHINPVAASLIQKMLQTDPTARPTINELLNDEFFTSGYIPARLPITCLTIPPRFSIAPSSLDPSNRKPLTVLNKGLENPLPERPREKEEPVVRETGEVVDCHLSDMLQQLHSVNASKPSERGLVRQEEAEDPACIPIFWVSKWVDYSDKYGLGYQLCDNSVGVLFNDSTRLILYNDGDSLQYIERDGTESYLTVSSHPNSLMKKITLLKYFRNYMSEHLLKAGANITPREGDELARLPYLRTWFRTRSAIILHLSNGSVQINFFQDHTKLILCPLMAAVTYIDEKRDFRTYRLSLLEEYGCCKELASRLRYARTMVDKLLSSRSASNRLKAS
smiles,measurement,setting,value
COc1cc(N2CCNCC2)ccc1Nc1ncc2c(n1)-n1ccc(C(=O)Nc3c(C)cccc3C)c1CC2 [compound of formula (I)],target-residency on PLK1,biotinylated PLK1,just a few minutes
same,time TTK completely occupied after last dose,"tumor-derived TTK; IV twice-weekly, MTD dose, MDA-MB-231 tumors",at least 72 h
same,time tumor-derived TTK fully drug-occupied after last administration,"tumor-derived TTK; IV weekly MTD dosing, repeat experiment",up to 6 days
same,Tmax,"[1]; single oral 5 mg/kg, Formulation 1, female mice, read-out: Tmax",4 h
same,Tmax,"[1]; single oral 7.5 mg/kg, Formulation 1, female mice, read-out: Tmax",4 h
same,Tmax,"[1]; single oral 10 mg/kg, Formulation 1, female mice, read-out: Tmax",4 h
same,bioavailability,"[1]; female, oral, single dose administration, read-out: oral bioavailability",76 to 96%
same,AUC(0-inf),[1]; [2],1100 ng·h/mL
same,AUC(0-t),[1]; [2],1080 ng·h/mL
same,bioavailability,"[1]; female, po, 5 mg/kg, single oral 5 mg/kg, Formulation 1, female mice, read-out: F (%)",76%
same,Cmax,[1]; [2],108 ng/mL
same,half-life,[1]; [2],3.27 h
same,AUC(0-inf),[1]; [3],1130 ng·h/mL
same,AUC(0-t),[1]; [3],1120 ng·h/mL
same,bioavailability,"[1]; female, po, 5 mg/kg, single oral 5 mg/kg, Formulation 2, female mice, read-out: F (%)",78%
same,Cmax,[1]; [3],103 ng/mL
same,half-life,[1]; [3],3.29 h
same,AUC(0-inf),[1]; [4],1660 ng·h/mL
same,AUC(0-t),[1]; [4],1650 ng·h/mL
same,bioavailability,"[1]; female, po, 7.5 mg/kg, single oral 7.5 mg/kg, Formulation 1, female mice, read-out: F (%)",77%
same,Cmax,[1]; [4],164 ng/mL
same,half-life,[1]; [4],3.23 h
same,AUC(0-inf),[1]; [5],1910 ng·h/mL
same,AUC(0-t),[1]; [5],1880 ng·h/mL
same,bioavailability,"[1]; female, po, 7.5 mg/kg, single oral 7.5 mg/kg, Formulation 2, female mice, read-out: F (%)",88%
same,Cmax,[1]; [5],172 ng/mL
same,half-life,[1]; [5],3.51 h
same,AUC(0-inf),[1]; [6],2480 ng·h/mL
same,AUC(0-t),[1]; [6],2430 ng·h/mL
same,bioavailability,"[1]; female, po, 10 mg/kg, single oral 10 mg/kg, Formulation 1, female mice, read-out: F (%)",86%
same,Cmax,[1]; [6],210 ng/mL
same,half-life,[1]; [6],3.66 h
same,AUC(0-inf),[1]; [7],2770 ng·h/mL
same,AUC(0-t),[1]; [7],2730 ng·h/mL
same,bioavailability,"[1]; female, po, 10 mg/kg, single oral 10 mg/kg, Formulation 2, female mice, read-out: F (%)",96%
same,Cmax,[1]; [7],276 ng/mL
same,half-life,[1]; [7],3.43 h
same,Tmax,"[1]; female, single oral administration, 5-10 mg/kg, both formulations, read-out: median Tmax",4 h
same,% extrapolated,[1]; [8],1.11%
same,AUCinf/Dose,[1]; [8],220 ng·h/mL/mg/kg
same,AUClast/Dose,[1]; [8],216 (h*ng/mL)/(mg/kg)
same,Cmax/Dose,[1]; [8],21.6 (ng/mL)/(mg/kg)
same,% extrapolated,[1]; [9],1.14%
same,AUCinf/Dose,[1]; [9],226 ng·h/mL/mg/kg
same,AUClast/Dose,[1]; [9],224 (h*ng/mL)/(mg/kg)
same,Cmax/Dose,[1]; [9],20.6 (ng/mL)/(mg/kg)
same,% extrapolated,[1]; [10],1.06%
same,AUCinf/Dose,[1]; [10],221 ng·h/mL/mg/kg
same,AUClast/Dose,[1]; [10],220 (h*ng/mL)/(mg/kg)
same,Cmax/Dose,[1]; [10],21.9 (ng/mL)/(mg/kg)
same,% extrapolated,[1]; [11],1.67%
same,AUCinf/Dose,[1]; [11],255 ng·h/mL/mg/kg
same,AUClast/Dose,[1]; [11],251 (h*ng/mL)/(mg/kg)
same,Cmax/Dose,[1]; [11],22.9 (ng/mL)/(mg/kg)
same,% extrapolated,[1]; [12],1.9%
same,AUCinf/Dose,[1]; [12],248 ng·h/mL/mg/kg
same,AUClast/Dose,[1]; [12],243 (h*ng/mL)/(mg/kg)
same,Cmax/Dose,[1]; [12],21 (ng/mL)/(mg/kg)
same,% extrapolated,[1]; [13],1.47%
same,AUCinf/Dose,[1]; [13],277 ng·h/mL/mg/kg
same,AUClast/Dose,[1]; [13],273 (h*ng/mL)/(mg/kg)
same,Cmax/Dose,[1]; [13],27.6 (ng/mL)/(mg/kg)

# Source: patent US20250057844A1, “METHODS OF TREATING NEOPLASTIC DISEASES” (SILLAJEN, INC., priority 2021, published 2025)
